Source: patent US20240101548A1, “HYDROXAMATE COMPOUND, PREPARATION METHOD THEREFOR AND APPLICATION THEREOF” (SHENZHEN CHIPSCREEN BIOSCIENCES CO., LTD., priority 2020, published 2024)
Where two headings read alike, the source gives them in different places.

Tests used:
[1] = system: IL-2-induced JAK1/JAK3 signal pathway; experiment: IL-2-induced proliferation of KHYG-1 cells (JAK1/JAK3 signal); type: cell-based, human; conditions: Homo sapiens, read-out: Inhibition activity IC50 on IL-2-induced JAK1/JAK3 signal pathway
Excerpt: The main physiological function of cytokine IL-2 is to stimulate and maintain the proliferation and differentiation of T cells. Generally, IL-2 dependent T cells cannot survive in in-vitro culture for a long time, but the addition of IL-2 can make them continue to proliferate. The signal pathway induced by IL-2 coupling with its receptor is mediated by JAK1/JAK3-STAT5, so the inhibitor of JAK1 and/or JAK3 can inhibit the proliferation of IL-2 dependent cells.
Human natural killer cell lymphoma cell line KHYG-1 was commercially available from Health Science Research Resources Bank (HSRRB), and relevant culture conditions referred to those from HSRRB.
The inhibition rate of the tested compound on IL-2-induced cell proliferation was calculated using Microsoft Excel.
After culture at 37° C. and 5% CO2 for 72 hours, alamarBlue™ Cell Viability Reagent was added to each well following the instructions.
(§1) The well in which neither compound nor cytokine was added was designated as 0% control well, and the fluorescence value in the wells in which the final concentration of compound was 0 was designated as 100% control. The inhibition activity C50 of the tested compound on JAK1/JAK3 could be calculated from the inhibition rate of the tested compound on IL-2-induced cell proliferation at different doses.

[2] = system: EPO-induced JAK2 signal pathway; experiment: EPO-induced proliferation of UT-7 cells (JAK2 signal); type: cell-based, human; conditions: Homo sapiens, UT7; UT-7 cell proliferation, EPO 10 ng/mL, 72 hours; read-out: Inhibition activity IC50 on EPO-induced JAK2 signal pathway
Experimental: The cytokine EPO, i.e. erythropoietin, can promote the proliferation and division of erythroid progenitor cells, and the signal pathway induced by EPO coupling with its receptor is mediated by JAK2-STAT5.
Human promegakaryocytic leukemia cell line UT-7 was commercially available from Cell Resource Center, Institute of Basic Medicine, Chinese Academy of Medical Sciences. The culture medium was RPIM1640 containing 10% FBS, and EPO was added for a final concentration of 10 ng/mL.
The inhibition rate of the tested compound on EPO-induced cell proliferation was calculated using Microsoft Excel.
UT-7 cell line was inoculated in 96-well plate with flat bottom at 15000 cells per well, each well was added with 10 ng/mL of human recombinant EPO (Human EPO PEPROTECH 100-64-10UG), along with tested compound respectively for a final concentration of 0, 100, 1000 or 10000 nM. After culture at 37° C. and 5% CO2 for 72 hours, alamarBlue™ Cell Viability Reagent was added to each well following the instructions. After incubation at 37° C. for color reaction, the fluorescence value at Ex530/Em590 was detected using Tecan Spark™ 10M multimode microplate reader.
as §1, with “[…]” for “0%”, “100” for “100%”, “[…] ofthe” for “C50 of the”, “JAK2” for “JAK1/JAK3”, “ofthe” for “of the”, “EPO-induced” for “IL-2-induced”

[3] = KHYG-1 cell proliferation, IL-2 10 ng/mL, 72 hours

**Q.** How did the IC50 [1, 3] turn out when `CONC(=O)c1cnc(NC(=O)C2CC2)cc1Nc1cccn(-c2nccs2)c1=O` [Example 1, 6-(cyclopropylcarboxamido)-N-methoxy-4-((2-oxo-1-(thiazol-2-yl)-1,2-dihydropyridin-3-yl)amino)nicotinamide] was run?
**A.** Its IC50 is over 10 µM.

**Q.** And the IC50 [2]?
**A.** The IC50 was over 10 µM.

**Q.** Which IC50 [1, 3] does the source give for `CONC(=O)c1cnc(NC(=O)C2CC2)cc1Nc1cccc(-c2nc3ccccc3n2C)c1OC` [Example 3, 6-(cyclopropylcarboxamido)-N-methoxy-4-((2-methoxy-3-(1-methyl-1H-benzo[d]imidazol-2-yl)phenyl)amino)nicotinamide] here?
**A.** Its IC50 is over 10 µM.

**Q.** And the IC50 [2]?
**A.** Its IC50 is over 10 µM.

**Q.** How did the IC50 [1, 3] turn out when `CONC(=O)c1cnc(Nc2cccnc2OC)cc1Nc1ccccc1N(C)S(C)(=O)=O` [Example 5] was run?
**A.** Its IC50 is over 10 µM.

**Q.** And the IC50 [2]?
**A.** The IC50 was over 10 µM.

**Q.** With `CONC(=O)c1cnc(NC(=O)C2CC2)cc1Nc1ccc(OC)cc1N(C)S(C)(=O)=O` [Example 6, 6-(cyclopropylcarboxamido)-N-methoxy-4-((4-methoxy-2-(N-methylmethanesulfonamido)phenyl)amino)nicotinamide] as the compound, how does the IC50 [1, 3] read?
**A.** The IC50 was over 10 µM.

**Q.** What about the IC50 [2] of the same compound?
**A.** The IC50 was over 10 µM.

**Q.** Which IC50 [1, 3] does the source give for `CONC(=O)c1cnc(NC(=O)C2CC2)cc1Nc1ccc(OC)nc1N(C)S(C)(=O)=O` [Example 7, 6-(cyclopropylcarboxamido)-N-methoxy-4-((6-methoxy-2-(N-methylmethanesulfonamido)pyridin-3-yl)amino)nicotinamide] here?
**A.** The IC50 was over 10 µM.

**Q.** What about the IC50 [2] of the same compound?
**A.** The IC50 was over 10 µM.

**Q.** What does the source list for `CONC(=O)c1cnc(Nc2ccc(F)cn2)cc1Nc1ccc(OC)nc1N(C)S(C)(=O)=O` [Example 8, 6-((5-fluoropyridin-2-yl)amino)-N-methoxy-4-((6-methoxy-2-(N-methylmethanesulfonamido)pyridin-3-yl)amino)nicotinamide]?
**A.** IC50 [1, 3]: > 10 µM; IC50 [2]: > 10 µM

**Q.** What does the source list for `CONC(=O)c1cnc(Nc2cccnc2OC)cc1Nc1ccc(OC)nc1N(C)S(C)(=O)=O` [Example 9, N-methoxy-4-((6-methoxy-2-(N-methylmethanesulfonamido)pyridin-3-yl)amino)-6-((2-methoxypyridin-3-yl)amino)nicotinamide]?
**A.** IC50 [1, 3]: > 10 µM; IC50 [2]: > 10 µM

**Q.** How did the IC50 [1, 3] turn out when `CONC(=O)c1cnc(Nc2cccc(F)n2)cc1Nc1ccc(C(F)(F)F)cc1N(C)S(C)(=O)=O` [Example 11, 6-((6-fluoropyridin-2-yl)amino)-N-methoxy-4-((2-(N-methylmethanesulfonamido)-4-(trifluoromethyl)phenyl)amino)nicotinamide] was run?
**A.** The IC50 was over 10 µM.

**Q.** What about the IC50 [2] of the same compound?
**A.** The IC50 was over 10 µM.

**Q.** What does the source list for `CONC(=O)c1cnc(Nc2ccc(F)cc2)cc1Nc1ccc(C2CC2)cc1N(C)S(C)(=O)=O` [Example 15, 4-((4-cyclopropyl-2-(N-methylmethanesulfonamido)phenyl)amino)-6-((4-fluorophenyl)amino)-N-methoxy nicotinamide]?
**A.** IC50 [1, 3]: > 10 µM; IC50 [2]: > 10 µM

**Q.** `CONC(=O)c1cnc(Nc2ccc(F)cc2)cc1Nc1cccnc1N(C)S(C)(=O)=O` [Example 17, 6-((4-fluorophenyl)amino)-N-methoxy-4-((2-(N-methylmethanesulfonamido)pyridin-3-yl)amino)nicotinamide] was tested. Which IC50 [1, 3] did it give?
**A.** The IC50 was over 10 µM.

**Q.** What about the IC50 [2] of the same compound?
**A.** The IC50 was over 10 µM.

**Q.** How did the IC50 [1, 3] turn out when `CC(C)ONC(=O)c1cnc(Nc2cccc(F)n2)cc1Nc1ccc(C2CC2)cc1N(C)S(C)(=O)=O` [Example 23, 4-((4-cyclopropyl-2-(N-methylmethanesulfonamido)phenyl)amino)-6-((6-fluoropyridin-2-yl)amino)-N-isopropoxy nicotinamide] was run?
**A.** Its IC50 is over 10 µM.

**Q.** What about the IC50 [2] of the same compound?
**A.** Its IC50 is over 10 µM.

**Q.** For `C#Cc1ccc(Nc2cc(Nc3cccc(F)n3)ncc2C(=O)NOC(C)C)c(N(C)S(C)(=O)=O)c1` [Example 24], which IC50 [1, 3] is on record?
**A.** The IC50 was over 10 µM.

**Q.** And the IC50 [2]?
**A.** The IC50 was over 10 µM.

**Q.** For `CCONC(=O)c1cnc(Nc2cc(C)nc(C)n2)cc1Nc1cccc(-c2cnn(C)c2)c1OC` [Example 25, 6-((2,6-dimethylpyrimidin-4-yl)amino)-N-ethoxy-4-((2-methoxy-3-(1-methyl-1H-pyrazol-4-yl)phenyl)amino)nicotinamide], which IC50 [1, 3] is on record?
**A.** Its IC50 is over 10 µM.

**Q.** And the IC50 [2]?
**A.** The IC50 was over 10 µM.

**Q.** How did the IC50 [1, 3] turn out when `CCONC(=O)c1cnc(NC(=O)C2CC2)cc1Nc1cccc(-c2cnn(C)c2)c1OC` [Example 26, 6-(cyclopropylcarboxamido)-N-ethoxy-4-((2-methoxy-3-(1-methyl-1H-pyrazol-4-yl)phenyl)amino)nicotinamide] was run?
**A.** The IC50 was over 10 µM.

**Q.** And the IC50 [2]?
**A.** The IC50 was over 10 µM.

**Q.** How did the IC50 [1, 3] turn out when `CCONC(=O)c1cnc(Nc2ccc(C3CC3)cn2)cc1Nc1ccccc1N(C)S(C)(=O)=O` [Example 27, 6-((5-cyclopropylpyridin-2-yl)amino)-N-ethoxy-4-((2-(N-methylmethanesulfonamido)phenyl)amino)nicotinamide] was run?
**A.** The IC50 was over 10 µM.

**Q.** What about the IC50 [2] of the same compound?
**A.** Its IC50 is over 10 µM.

**Q.** How did the IC50 [1, 3] turn out when `CONC(=O)c1cnc(NC(=O)C2CC2)cc1Nc1ccc2cnn(C)c2c1` [Example 28, 6-(cyclopropylcarboxamido)-N-methoxy-4-((1-methyl-1H-indazol-6-yl)amino)nicotinamide] was run?
**A.** The IC50 was over 10 µM.

**Q.** And the IC50 [2]?
**A.** The IC50 was over 10 µM.

**Q.** Which IC50 [1, 3] does the source give for `CONC(=O)c1cnc(Nc2cccc(F)n2)cc1Nc1cccc(-c2ccn(C)n2)c1OC` [Example 30, 6-((6-fluoropyridin-2-yl)amino)-N-methoxy-4-((2-methoxy-3-(1-methyl-1H-pyrazol-3-yl)phenyl)amino)nicotinamide] here?
**A.** The IC50 was over 10 µM.

**Q.** And the IC50 [2]?
**A.** The IC50 was over 10 µM.

**Q.** Which results are given for `CONC(=O)c1cnc(NC(=O)C2CC2)cc1Nc1cccc(C#N)c1OC` [Example 31, 4-((3-cyano-2-methoxyphenyl)amino)-6-(cyclopropylcarboxamido)-N-methoxy nicotinamide]?
**A.** IC50 [1, 3]: > 10 µM; IC50 [2]: > 10 µM

**Q.** What does the source list for `CONC(=O)c1cnc(NC(=O)C2CC2)cc1Nc1cccc(F)c1N(C)S(C)(=O)=O` [Example 32, 6-(cyclopropylcarboxamido)-4-((3-fluoro-2-(N-methylmethanesulfonamido)phenyl)amino)-N-methoxy nicotinamide]?
**A.** IC50 [1, 3]: > 10 µM; IC50 [2]: > 10 µM

**Q.** With `CONC(=O)c1cnc(NC(=O)C2CC2)cc1Nc1cccc(C)c1N(C)S(C)(=O)=O` [Example 33, 6-(cyclopropylcarboxamido)-N-methoxy-4-((3-methyl-2-(N-methylmethanesulfonamido)phenyl)amino)nicotinamide] as the compound, how does the IC50 [1, 3] read?
**A.** The IC50 was over 10 µM.

**Q.** And the IC50 [2]?
**A.** Its IC50 is over 10 µM.

**Q.** Which IC50 [1, 3] does the source give for `CONC(=O)c1cnc(NC(=O)C2CC2)cc1Nc1ccccc1S(=O)(=O)N(C)C` [Example 34, 6-(cyclopropylcarboxamido)-4-((2-(N,N-dimethylaminosulfonyl)phenyl)amino)-N-methoxy nicotinamide] here?
**A.** Its IC50 is over 10 µM.

**Q.** And the IC50 [2]?
**A.** Its IC50 is over 10 µM.

**Q.** `CONC(=O)c1cnc(NC(=O)C2CC2)cc1Nc1cccnc1N(C)S(C)(=O)=O` [Example 35, 6-(cyclopropylcarboxamido)-N-methoxy-4-((2-(N-methylmethanesulfonamido)pyridin-3-yl)amino)nicotinamide] was tested. Which IC50 [1, 3] did it give?
**A.** Its IC50 is over 10 µM.

**Q.** And the IC50 [2]?
**A.** Its IC50 is over 10 µM.

**Q.** How did the IC50 [1, 3] turn out when `CONC(=O)c1cnc(Nc2cccc(F)n2)cc1Nc1ccccc1S(=O)(=O)N(C)C` [Example 37, 4-((2-(N,N-dimethylaminosulfonyl)phenyl)amino)-6-((6-fluoropyridin-2-yl)amino)-N-methoxy nicotinamide] was run?
**A.** The IC50 was over 10 µM.

**Q.** And the IC50 [2]?
**A.** The IC50 was over 10 µM.

**Q.** For `CONC(=O)c1cnc(NC(=O)C2CC2)cc1Nc1ccccc1OC1COC1` [Example 39, 6-(cyclopropylcarboxamido)-N-methoxy-4-((2-(oxetan-3-yloxy)phenyl)amino)nicotinamide], which IC50 ([1]; KHYG-1, 72 h) is on record?
**A.** The IC50 was over 10 µM.

**Q.** What about the IC50 [2] of the same compound?
**A.** The IC50 was over 10 µM.

**Q.** With `CONC(=O)c1cnc(Nc2cccc(F)n2)cc1Nc1ccccc1OC1COC1` [Example 40] as the compound, how does the IC50 [1, 3] read?
**A.** Its IC50 is over 10 µM.

**Q.** And the IC50 [2]?
**A.** The IC50 was over 10 µM.

**Q.** What does the source list for `CONC(=O)c1cnc(NC(=O)C2CC2)cc1Nc1cccc(-c2cnn(C)c2)c1C#N` [Example 48, 4-((2-cyano-3-(1-methyl-1H-pyrazol-4-yl)phenyl)amino)-6-(cyclopropylcarboxamido)-N-methoxy nicotinamide]?
**A.** IC50 [1, 3]: > 10 µM; IC50 [2]: > 10 µM

**Q.** How did the IC50 [1, 3] turn out when `CONC(=O)c1cnc(Nc2ccc(F)cn2)cc1Nc1cccc(-c2cnn(C)c2)c1C#N` [Example 49, 4-((2-cyano-3-(1-methyl-1H-pyrazol-4-yl)phenyl)amino)-6-((5-fluoropyridin-2-yl)amino)-N-methoxy nicotinamide] was run?
**A.** The IC50 was over 10 µM.

**Q.** What about the IC50 [2] of the same compound?
**A.** Its IC50 is over 10 µM.

**Q.** How did the IC50 [2] turn out when `N#CC[C@H](C1CCCC1)n1cc(-c2ncnc3[nH]ccc23)cn1` [ruxolitinib, reference compound] was run?
**A.** Its IC50 is under 0.1 µM.
